Measurements taken from patent US20260374739A1, “SMALL MOLECULAR WEIGHT CHEMICAL COMPOUND TO ANTAGONIZE EPH-EPHRIN TETRAMERIZATION AND INHIBIT BIDIRECTIONAL SIGNALING” (THE BOARD OF REGENTS OF THE UNIVERSITY OF TEXAS SYSTEM, priority 2022, published 2026).
Values joined by “and” are separate entries in the source; they are usually repeats but may differ in a detail not shown here. Equal entries are not always repeated. “Also recorded” adds a separate entry of the source. Where two headings read alike, the source gives them in different places.

Legend:
EphrinB2-EphB4 = target: T1, EphrinB2-EphB4 (Homo sapiens, UniProt P54760); experiment: Octet 80 sec association/500 sec dissociation, immobilized human EphrinB2-Fc binding to soluble human EphB4-His; details: for inhibition at 3.2 µM: EphB4, 25 nM EphB4, 3.2 μM compound, A20-I as max control, 0* = less than 0, no inhibition
T1 construct: soluble human EphB1-His, EphB2-His, and EphB4-His ectodomains; commercially available human EphrinB1-Fc (EB1), EphrinB2-Fc (EB2), and EphrinB3-Fc (EB3) ectodomain proteins; purchased
T1 sequence (P54760 16-539 limits assumed): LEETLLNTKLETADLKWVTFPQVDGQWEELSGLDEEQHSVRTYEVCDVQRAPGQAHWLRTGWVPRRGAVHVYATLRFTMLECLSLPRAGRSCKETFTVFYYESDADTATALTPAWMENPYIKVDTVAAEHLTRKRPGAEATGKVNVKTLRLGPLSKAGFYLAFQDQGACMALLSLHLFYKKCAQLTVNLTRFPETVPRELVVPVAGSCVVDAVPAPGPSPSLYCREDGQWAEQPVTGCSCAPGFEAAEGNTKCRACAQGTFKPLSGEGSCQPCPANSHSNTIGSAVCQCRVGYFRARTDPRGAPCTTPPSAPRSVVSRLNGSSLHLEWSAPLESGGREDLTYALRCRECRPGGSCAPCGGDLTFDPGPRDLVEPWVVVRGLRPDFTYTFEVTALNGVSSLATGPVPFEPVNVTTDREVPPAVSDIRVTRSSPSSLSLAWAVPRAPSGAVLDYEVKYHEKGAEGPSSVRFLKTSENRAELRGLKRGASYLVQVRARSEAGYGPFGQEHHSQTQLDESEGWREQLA
Summary of the method: (§1)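 EphrinB2-Fc captured on AHC biosensors, then soluble His-tagged EphB ectodomain (25 nM for % inhibition runs) associated 80 s and dissociated 500 s in PBS, 0.05% Tween-20, 1% DMSO ± compound. Compounds tested at 0.1–3.2 μM with a 10 μM max standard; IC50 from AUC of full traces or at 75 s and 135 s.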

EphrinB2-EphB2 = target: T2, EphrinB2-EphB2 (Homo sapiens, UniProt P29323); experiment: Octet 80 sec association/500 sec dissociation, immobilized human EphrinB2-Fc binding to soluble human EphB2-His; details: for EphB2 Inhibition Percent, Inhibition of Association-Dissociation: at 3.2 μM and 580 seconds, immobilized human EphrinB2, 25 nM soluble human EphB2
T2 construct: soluble human EphB1-His, EphB2-His, and EphB4-His ectodomains; commercially available human EphrinB1-Fc (EB1), EphrinB2-Fc (EB2), and EphrinB3-Fc (EB3) ectodomain proteins; purchased
T2 sequence (P29323 19-543 limits assumed): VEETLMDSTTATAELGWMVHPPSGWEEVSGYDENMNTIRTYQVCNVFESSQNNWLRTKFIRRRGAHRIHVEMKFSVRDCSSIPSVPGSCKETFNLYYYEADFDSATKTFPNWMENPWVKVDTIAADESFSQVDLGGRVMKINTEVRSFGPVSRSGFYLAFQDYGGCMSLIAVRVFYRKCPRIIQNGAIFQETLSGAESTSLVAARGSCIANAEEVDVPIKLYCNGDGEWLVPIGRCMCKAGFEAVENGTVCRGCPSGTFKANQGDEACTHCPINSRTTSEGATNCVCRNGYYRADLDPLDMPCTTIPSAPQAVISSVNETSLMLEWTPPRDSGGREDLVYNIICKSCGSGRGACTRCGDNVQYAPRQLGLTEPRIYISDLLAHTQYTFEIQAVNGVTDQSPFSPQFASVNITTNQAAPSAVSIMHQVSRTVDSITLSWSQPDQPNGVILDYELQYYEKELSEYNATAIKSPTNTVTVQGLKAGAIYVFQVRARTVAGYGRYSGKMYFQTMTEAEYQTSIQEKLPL
Summary of the method: as §1

[1] = read-out: % Inhibition: Association + Dissociation (160 sec)
[2] = read-out: % Inhibition: Association ONLY (80 sec)
[3] = EphB2, 25 nM EphB2, 3.2 μM compound, A20-I as max control, 0* = less than 0, no inhibition, read-out: % Inhibition: Association + Dissociation (160 sec)
[4] = EphB2, 25 nM EphB2, 3.2 μM compound, A20-I as max control, 0* = less than 0, no inhibition, read-out: % Inhibition: Association ONLY (80 sec)

Compound	inhibition at 3.2 µM (EphrinB2-EphB4; [1]) [%]	inhibition at 3.2 µM (EphrinB2-EphB4; [2]) [%]	inhibition at 3.2 µM (EphrinB2-EphB2; [3]) [%]	inhibition at 3.2 µM (EphrinB2-EphB2; [4]) [%]	other results
O=[N+]([O-])c1cc(CN2CCOCC2)c2cccnc2c1O [Compound 9, 5-(morpholinomethyl)-7-nitroquinolin-8-ol]					less % inhibition activity toward EphrinB2-EphB4 (EphrinB2-EphB4; 3.2 μM): approximately 20 fold; selectivity among EphrinB2-EphB1/B2/B4 (EphrinB2-EphB4; 3.2 μM, listed as A19-NO2): selectively inhibit EphrinB2-EphB2 and EphrinB2-EphB1 interactions, while sparing most of the EphrinB2-EphB4 interaction; also recorded: less action towards EphB4 but high specificity for EphB1 and EphB2; inhibition of EphB4-EphrinB2 binding (EphrinB2-EphB4; association step, general): 0%; EphB4 Inhibition Percent, Inhibition of Association ONLY (EphrinB2-EphB4; at 3.2 μM and 80 seconds, immobilized human EphrinB2, 25 nM soluble human EphB4): 0.6% and 0% and 8.2%; % Inhibition: Association + Dissociation (160 sec) (EphrinB2-EphB2; EphB2, 25 nM EphB2, 3.2 μM compound, A20-I as max control, 0* = less than 0, no inhibition, listed as A19-NO2 (A)): 58.0% and 38.9%; inhibition of EphB2-EphrinB2 binding (EphrinB2-EphB2; association step, general): 40%; EphB2 Inhibition Percent, Inhibition of Association-Dissociation (EphrinB2-EphB2): 58.0% (2×) and 38.9%
O=C(Cc1ccccc1)Nc1ccc(N2CCN(Cc3ccc(O)c4ncccc34)CC2)cc1 [Compound 51, N-(4-(4-((8-hydroxyquinolin-5-yl)methyl)piperazin-1-yl)phenyl)-2-phenylacetamide]	37.2	18.1	78.8	64.8	
Oc1ccc(CN2CCN(Cc3ccc(Br)cc3)CC2)c2cccnc12 [Compound 42, 5-((4-(4-bromobenzyl)piperazin-1-yl)methyl)quinolin-8-ol]	0	0	56.3	37.8	selectivity among EphrinB2-EphB1/B2/B4 (EphrinB2-EphB4; 3.2 μM): ability to selectively inhibit EphrinB2-EphB2 and EphrinB2-EphB1 interactions, while sparing the EphrinB2-EphB4 interaction
COc1ccc2[nH]cc(C(=O)N3CCN(c4ccccc4OC)CC3)c2c1 [Compound 64, (5-methoxy-1H-indol-3-yl)(4-(2-methoxyphenyl)piperazin-1-yl)methanone]	0	0	0	0	
Oc1c(I)cc(CN2CCOCC2)c2cccnc12 [Compound 8, 4-((8-hydroxy-7-iodoquinolin-1-ium-5-yl)methyl)morpholin-4-ium chloride]					EphB2 Inhibition Percent, Inhibition of Association-Dissociation (EphrinB2-EphB2): 73.6%
OCc1ccc2c(CN3CCOCC3)cc(Br)c(O)c2n1 [Compound 13, 7-bromo-2-(hydroxymethyl)-5-(morpholinomethyl)quinolin-8-ol]	7.6	0	68.4	50.5	
Oc1ccc(CN2CCOCC2)c2cccnc12 [Compound 1, 5-(morpholinomethyl)quinolin-8-ol]					inhibition of EphrinB2-EphB interactions (EphrinB2-EphB2; 3.2 μM, EphB1, EphB2 and EphB4): generally less active towards all three interactions
